Here are results for two compounds from patent US20240173334A1, “Oral (17-ß)-3-Oxoandrost-4-EN-17-YL Tridecanoate Therapy” (Lipocine Inc., priority 2018, published 2024).

Data set [1] in a line: ascending multiple-dose steady-state PK of undecanoate in dosage form B1 in hypogonadal males (Example 6). In kind it is in vivo, human (adult hypogonadal male subjects). The method, then:
A single-center, randomized, double-blind, placebo-controlled, ascending multiple-dose, serial-group study was conducted to evaluate the safety, tolerability, and the steady-state PK parameters of an oral composition comprising substantially noncrystalline form of (17-ß)-3-oxoandrost-4-en-17-yl undecanoate in adult hypogonadal male subjects (N=84). The treatments were following as: • Treatment A: 75 mg of (17-ß)-3-oxoandrost-4-en-17-yl undecanoate as androst-4-en-17β-ol-3-one ester based on dosage form B1 in BID. • Treatment B: 150 mg of (17-ß)-3-oxoandrost-4-en-17-yl undecanoate as androst-4-en-17β-ol-3-one ester based on dosage form B1 in BID. • Treatment C: 225 mg of (17-ß)-3-oxoandrost-4-en-17-yl undecanoate as androst-4-en-17β-ol-3-one ester based on dosage form B1 in BID. • Treatment D: 300 mg of (17-ß)-3-oxoandrost-4-en-17-yl undecanoate as androst-4-en-17β-ol-3-one ester based on dosage form B1 in BID. • Treatment E: placebo capsules in BID
(§1) The steady state PK parameters were obtained post the treatment initiation.

Data set [2] can be described thus: multiple-dose steady-state PK of dosage form B7 in hypogonadal males (Example 5). In kind it is in vivo, human (hypogonadal males). The method, then: A multi-center, open-label, randomized, 4-treatment arm, multiple-dose study was performed to evaluate the safety, tolerability, and the steady-state PK parameters of the oral composition comprising substantially noncrystalline form of (17-ß)-3-oxoandrost-4-en-17-yl tridecanoate (dosage form B7) in hypogonadal males (N=48). The treatments were following as: • Treatment A: 500 mg of (17-ß)-3-oxoandrost-4-en-17-yl tridecanoate as androst-4-en-17β-ol-3-one ester in dosage form B7 in QD. • Treatment B: 750 mg of (17-ß)-3-oxoandrost-4-en-17-yl tridecanoate as androst-4-en-17β-ol-3-one ester in dosage form B7 in QD. • Treatment C: 1000 mg of (17-ß)-3-oxoandrost-4-en-17-yl tridecanoate as androst-4-en-17β-ol-3-one ester in dosage form B7 in QD. • Treatment D: 1250 mg of (17-ß)-3-oxoandrost-4-en-17-yl tridecanoate as androst-4-en-17β-ol-3-one ester in dosage form B7 in QD.
as §1
The evaluation of the relation between Cavg or Cmax and dose amount of (17-ß)-3-oxoandrost-4-en-17-yl tridecanoate was performed using the group mean values of Cavg and Cmax of androst-4-en-17β-ol-3-one obtained at the steady state.

[3] abbreviates: 75 mg BID, dosage form B1, N=16.
Setting [4] is: 150 mg BID, dosage form B1, N=16.
Where [5] appears, read: 225 mg BID, dosage form B1, N=16.
The mark [6] stands for this setting: 300 mg BID, dosage form B1, N=9.
[7] abbreviates: 500 mg QD, dosage form B7, N=12.
Where [8] appears, read: 750 mg QD, dosage form B7, N=11.
The mark [9] stands for this setting: 1000 mg QD, dosage form B7, N=12.
Setting [10] is: 1250 mg QD, dosage form B7, N=12.

Take `CCCCCCCCCCC(=O)O[C@H]1CC[C@H]2[C@@H]3CCC4=CC(=O)CC[C@]4(C)[C@H]3CC[C@]12C` [(17-ß)-3-oxoandrost-4-en-17-yl undecanoate]: the “Cavg of androst-4-en-17β-ol-3-one, mean (±SD)” value in data set [1] (setting [3]) is listed as 270 (94) ng/dL; in data set [1] (setting [4]), 319 (77) ng/dL; in data set [1] (setting [5]), 446 (161) ng/dL; in data set [1] (setting [6]), 582 (184) ng/dL. For the same compound, the “Cmax of androst-4-en-17β-ol-3-one, mean (±SD)” value was 544 (169) ng/dL in data set [1] (setting [3]), 792 (276) ng/dL in data set [1] (setting [4]), 1169 (356) ng/dL in data set [1] (setting [5]) and 1644 (644) ng/dL in data set [1] (setting [6]).

Regarding `CCCCCCCCCCCCC(=O)O[C@H]1CC[C@H]2[C@@H]3CCC4=CC(=O)CC[C@]4(C)[C@H]3CC[C@]12C` [[(8R,9S,10R,13S,14S,17S)-10,13-dimethyl-3-oxo-1,2,6,7,8,9,11,12,14,15,16,17-dodecahydrocyclopenta[a]phenanthren-17-yl] tridecanoate], the “Cavg of androst-4-en-17β-ol-3-one, mean (±SD)” value in data set [2] (setting [7]) was 307 (157) ng/dL; in data set [2] (setting [8]) it was 352 (41) ng/dL; in data set [2] (setting [9]), 405 (148) ng/dL; in data set [2] (setting [10]) it was 465 (201) ng/dL. Besides, the “Cmax of androst-4-en-17β-ol-3-one, mean (±SD)” value in data set [2] (setting [7]) is 608 (318) ng/dL; in data set [2] (setting [8]) it was 822 (254) ng/dL; in data set [2] (setting [9]), 930 (326) ng/dL; in data set [2] (setting [10]) it was 1233 (695) ng/dL.
